Twelve molecules from patent publication US20260166159A1, “KRAS G12D DEGRADATION AGENT, AND PREPARATION METHOD AND USE THEREFOR” (LEADINGTAC PHARMACEUTICAL (SHAOXING) CO., LTD., priority 2022, published 2026) can be followed below.

Assay [1] concerns the target T1, Human KRAS G12D 6His-tagged (Homo sapiens, UniProt P01116, G12D).
T1 construct: purchased PerkinElmer
The assay can be described thus: KRAS-G12D/GTP binding assay (HTRF). Here is the method: In this method, the inhibitory effects of the compounds on the binding of KRAS-G12D to GTP were assayed by a homogeneous time-resolved fluorescence (HTRF) technique using a KRAS-G12D/GTP binding assay kit (PerkinElmer).
The experimental procedures were as follows (refer to the kit instructions for detailed test methods): the compounds of the present disclosure were each firstly dissolved in DMSO at a concentration of 20 mM, and then diluted in an equal gradient with a buffer in the kit, so that the final concentrations of the test compounds in the reaction system were in a range of 0.02-5000 nM, and the final concentration of DMSO was 0.5%. 5 μL of each compound was incubated with 5 μL of 1× Human KRAS G12D 6His-tagged (PerkinElmer), 5 μL of 1×6His Eu Cryptate Antibody (PerkinElmer), and 5 μL of 1×GTP Red reagent (PerkinElmer) in a 384-well plate (Greiner) at 25° C. for 1 h. After the incubation was completed, the fluorescence intensity of each well was measured at the excitation wavelength of 337 nm and the emission wavelengths of 620 nm and 665 nm with an EnVision microplate reader (PerkinElmer) in the HTRF mode, and Ratio values were calculated using the formula: Ratio=(665 nm/620 nm)×[…]. The inhibition rates of the compounds at each concentration were calculated by comparing the fluorescence intensity ratio with that of the control group. Then non-linear curve fittings for logarithmic concentration-inhibition rate were performed using the GraphPad Prism 8 analysis software, and the IC50 values of the compounds were obtained (Table 2).
Background: TR-FRET usually uses a lanthanide donor and a delayed reading to cut background.

Another assay addresses T2, KRAS-G12D (Homo sapiens, UniProt P01116, G12D).
T2 construct: endogenous in cells; host or cells: A-427 (ATCC), AGS, AsPc-1, Panc 04.03
Description: KRAS-G12D degradation assay (Western Blot), A-427 cells. In kind it is cell-based. As to conditions: A427 cells, 24 h, class symbols; for Dmax: A-427. A digest of the protocol:
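Each KRAS G12D mutant line (A-427, AGS, AsPc-1, Panc 04.03) was seeded at 5×10^5 cells/well and treated 24 h at 37 °C with 0.03–3000 nM compound (final DMSO 0.25%). KRAS in lysates was measured by Western blot, normalized to β-actin and compared with controls, giving DC50 and Dmax from curve fits.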
(In western blotting, separated proteins are transferred to a membrane and probed.)

For assay [2], the system named is KRAS G12D mutant human gastric cancer cell AGS. The assay can be described thus: 3D cell proliferation inhibition assay, AGS. As to conditions: 168 h, 7 days, CTG. It counts as cell-based. The procedure, abridged: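 CellTiter-Glo luminescence, read after 60 min at room temperature, measured growth of 3D cultures (5×10^2 cells/well) exposed for 7 days to compounds at final concentrations of 10000–0.026 nM in 0.2% DMSO. Percent inhibition, scaled between DMSO-treated cells and medium alone, was fitted against log concentration for IC50.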

T2 sequence (P01116 1-188 isoform P01116-2 G12D): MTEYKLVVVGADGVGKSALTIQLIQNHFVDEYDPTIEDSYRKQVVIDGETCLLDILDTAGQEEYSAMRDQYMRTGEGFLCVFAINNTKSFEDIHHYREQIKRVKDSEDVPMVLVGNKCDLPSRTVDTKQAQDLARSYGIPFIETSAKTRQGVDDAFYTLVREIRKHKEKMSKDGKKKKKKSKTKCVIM
T1 sequence (P01116 1-188 isoform P01116-2 G12D): as above

Take `C#Cc1c(F)ccc2cc(O)cc(-c3ncc4c(N5CC6CCC(C5)N6)nc(OCC5(CN6CCC(CCN7CCN(C(=O)c8ccc(Cl)c(N9CCC(=O)NC9=O)c8)CC7)CC6)CC5)nc4c3F)c12` [Example 28, 1-(5-(4-(2-(1-((1-(((4-(3,8-diazabicyclo[3.2.1]octan-3-yl)-7-(8-ethynyl-7-fluoro-3-hydroxynaphthalen-1-yl)-8-fluoropyrido[4,3-d]pyrimidin-2-yl)oxy)methyl)cyclopropyl)methyl)piperidin-4-yl)ethyl)piperazine-1-carbonyl)-2-chlorophenyl)dihydropyrimidine-2,4(1H,3H)-dione]: the IC50 in assay [1] (class symbols) is ≤ 50 nM. Besides, on KRAS-G12D, the DC50 is 1000 to 10000 nM and the Dmax is < 30%.

As for `C#Cc1c(F)ccc2cc(O)cc(-c3ncc4c(N5CC6CCC(C5)N6)nc(OC[C@@H]5CCCN5CCCC5CCN(C(=O)c6ccc(Cl)c(N7CCC(=O)NC7=O)c6)CC5)nc4c3F)c12` [Example 9, 1-(5-(4-(3-((S)-2-(((4-(3,8-diazabicyclo[3.2.1]octan-3-yl)-7-(8-ethynyl-7-fluoro-3-hydroxynaphthalen-1-yl)-8-fluoropyrido[4,3-d]pyrimidin-2-yl)oxy)methyl)pyrrolidin-1-yl)propyl)piperidine-1-carbonyl)-2-chlorophenyl)dihydropyrimidine-2,4(1H,3H)-dione], the IC50 in assay [1] (class symbols) fell in the range of 50 to 100 nM. At KRAS-G12D, this molecule gave a DC50 of 1000 to 10000 nM and a Dmax of 30 to 50%.

Regarding `C#Cc1c(F)ccc2cc(O)cc(-c3ncc4c(N5CC6CCC(C5)N6)nc(OCC5(CN6CC7CCC(C6)N7CC6CCC7(CC6)CCN(C(=O)c6ccc(Cl)c(N8CCC(=O)NC8=O)c6)CC7)CC5)nc4c3F)c12` [Example 58, 1-(5-(9-((3-((1-(((4-(3,8-diazabicyclo[3.2.1]octan-3-yl)-7-(8-ethynyl-7-fluoro-3-hydroxynaphthalen-1-yl)-8-fluoropyrido[4,3-d]pyrimidin-2-yl)oxy)methyl)cyclopropyl)methyl)-3,8-diazabicyclo[3.2.1]octan-8-yl)methyl)-3-azaspiro[5.5]undecane-3-carbonyl)-2-chlorophenyl)dihydropyrimidine-2,4(1H,3H)-dione], the IC50 in assay [1] (class symbols) was in the range of 500 to 1000 nM. For the same molecule, at KRAS-G12D, the DC50 is ≤ 50 nM and the Dmax fell in the range of 80 to 100%.

On to `CCc1cccc2cc(O)cc(-c3ncc4c(N5CC6CCC(C5)N6)nc(OC[C@@H]5CCCN5CCCC5CCN(C(=O)c6ccc(Cl)c(N7CCC(=O)NC7=O)c6)CC5)nc4c3F)c12` [Example 1, 1-(5-(4-(3-((S)-2-(((4-(3,8-diazabicyclo[3.2.1]octan-3-yl)-7-(8-ethyl-3-hydroxynaphthalen-1-yl)-8-fluoropyrido[4,3-d]pyrimidin-2-yl)oxy)methyl)pyrrolidin-1-yl)propyl)piperidine-1-carbonyl)-2-chlorophenyl)dihydropyrimidine-2,4(1H,3H)-dione], for which, in assay [1] (class symbols), the IC50 lay within 100 to 500 nM. At KRAS-G12D, this molecule came in with a DC50 of 1000 to 10000 nM and a Dmax of 30 to 50%.

`C#Cc1c(F)ccc2cc(O)cc(-c3ncc4c(N5CC6CCC(C5)N6)nc(OCC5(CN6CCC(O)(COCCC7CCN(C(=O)c8ccc(Cl)c(N9CCC(=O)NC9=O)c8)CC7)CC6)CC5)nc4c3F)c12` [Example 63]: the IC50 in assay [1] (numeric values) came out at 1.15 nM.

As for `C#Cc1c(F)ccc2cc(O)cc(-c3ncc4c(N5CC6CCC(C5)N6)nc(OCC5(CN6CCC7(CC6)CCN(C(=O)c6ccc(Cl)c(N8CCC(=O)NC8=O)c6)CC7)CC5)nc4c3F)c12` [Example 85, 1-(5-(9-((1-(((4-(3,8-diazabicyclo[3.2.1]octan-3-yl)-7-(8-ethynyl-7-fluoro-3-hydroxynaphthalen-1-yl)-8-fluoropyrido[4,3-d]pyrimidin-2-yl)oxy)methyl)cyclopropyl)methyl)-3,9-diazaspiro[5.5]undecane-3-carbonyl)-2-chlorophenyl)dihydropyrimidine-2,4(1H,3H)-dione], the IC50 came to 50.2 nM in assay [2] (numeric values) and 1.34 nM in assay [1] (numeric values).

Take `C#Cc1c(F)ccc2cc(O)cc(-c3ncc4c(N5CC6CCC(C5)N6)nc(OCC5CCN(CCCCC6CCC7(CC6)CCN(C(=O)c6ccc(Cl)c(N8CCC(=O)NC8=O)c6)CC7)CC5)nc4c3F)c12` [Example 52, 1-(5-(9-(4-(4-(((4-(3,8-diazabicyclo[3.2.1]octan-3-yl)-7-(8-ethynyl-7-fluoro-3-hydroxynaphthalen-1-yl)-8-fluoropyrido[4,3-d]pyrimidin-2-yl)oxy)methyl)piperidin-1-yl)butyl)-3-azaspiro[5.5]undecane-3-carbonyl)-2-chlorophenyl)dihydropyrimidine-2,4(1H,3H)-dione]: the IC50 in assay [1] (class symbols) lay in the range of 100 to 500 nM. Besides, at KRAS-G12D, the DC50 was 100 to 500 nM and the Dmax lay in the range of 50 to 80%.

In assay [1] (class symbols), `C#Cc1c(F)ccc2cc(O)cc(-c3ncc4c(N5CC6CCC(C5)N6)nc(OC[C@@H]5CCCN5CC5CCC6(CC5)CCN(C(=O)c5ccc(Cl)c(N7CCC(=O)NC7=O)c5)CC6)nc4c3F)c12` [Example 12, 1-(5-(9-(((S)-2-(((4-(3,8-diazabicyclo[3.2.1]octan-3-yl)-7-(8-ethynyl-7-fluoro-3-hydroxynaphthalen-1-yl)-8-fluoropyrido[4,3-d]pyrimidin-2-yl)oxy)methyl)pyrrolidin-1-yl)methyl)-3-azaspiro[5.5]undecane-3-carbonyl)-2-chlorophenyl)dihydropyrimidine-2,4(1H,3H)-dione] gave an IC50 of 100 to 500 nM. Moreover, at KRAS-G12D, the DC50 lay within 1000 to 10000 nM and the Dmax was in the range of 50 to 80%.

As to `C#Cc1c(F)ccc2cc(O)cc(-c3ncc4c(N5CC6CCC(C5)N6)nc(OCC5(CN6CCN(CC7CCN(C(=O)c8ccc(Cl)c(N9CCC(=O)NC9=O)c8)CC7)CC6)CC5)nc4c3F)c12` [Example 27, 1-(5-(4-((4-((1-(((4-(3,8-diazabicyclo[3.2.1]octan-3-yl)-7-(8-ethynyl-7-fluoro-3-hydroxynaphthalen-1-yl)-8-fluoropyrido[4,3-d]pyrimidin-2-yl)oxy)methyl)cyclopropyl)methyl)piperazin-1-yl)methyl)piperidine-1-carbonyl)-2-chlorophenyl)dihydropyrimidine-2,4(1H,3H)-dione], the IC50 in assay [2] (class symbols) was ≤ 50 nM. Besides, in assay [1] (class symbols), the IC50 was ≤ 50 nM. At KRAS-G12D, this molecule displayed a DC50 of 1000 to 10000 nM and a Dmax of 30 to 50%.

With `C#Cc1c(F)ccc2cc(O)cc(-c3ncc4c(N5CC6CCC(C5)N6)nc(OC[C@@H]5CCCN5CC5CCN(CCC(=O)N[C@H](C(=O)N6C[C@H](O)C[C@H]6C(=O)NCc6ccc(-c7scnc7C)cc6)C(C)(C)C)CC5)nc4c3F)c12` [Example 35, (2S,4R)-1-((S)-2-(3-(4-(((S)-2-(((4-(3,8-diazabicyclo[3.2.1]octan-3-yl)-7-(8-ethynyl-7-fluoro-3-hydroxynaphthalen-1-yl)-8-fluoropyrido[4,3-d]pyrimidin-2-yl)oxy)methyl)pyrrolidin-1-yl)methyl)piperidin-1-yl)propanamido)-3,3-dimethylbutanoyl)-4-hydroxy-N-(4-(4-methylthiazol-5-yl)benzyl)pyrrolidine-2-carboxamide], the IC50 in assay [1] (class symbols) was ≤ 50 nM. On KRAS-G12D, the DC50 was 1000 to 10000 nM and the Dmax was < 30%.

In turn, `C#Cc1c(F)ccc2cc(O)cc(-c3ncc4c(N5CC6CCC(C5)N6)nc(OCC5(CN6CCN(C(=O)c7ccc(Cl)c(N8CCC(=O)NC8=O)c7)CC6)CC5)nc4c3F)c12` [Example 69, 1-(5-(4-((1-(((4-(3,8-diazabicyclo[3.2.1]octan-3-yl)-7-(8-ethynyl-7-fluoro-3-hydroxynaphthalen-1-yl)-8-fluoropyrido[4,3-d]pyrimidin-2-yl)oxy)methyl)cyclopropyl)methyl)piperazine-1-carbonyl)-2-chlorophenyl)dihydropyrimidine-2,4(1H,3H)-dione] yielded a 50% inhibitory concentration (IC50) in assay [1] (numeric values) of 2.4 nM.

Molecule `CCc1cccc2cc(O)cc(-c3ncc4c(N5CC6CCC(C5)N6)nc(OC[C@@H]5CCCN5CCC5CCN(CCC(=O)N[C@H](C(=O)N6C[C@H](O)C[C@H]6C(=O)NCc6ccc(-c7scnc7C)cc6)C(C)(C)C)CC5)nc4c3F)c12` [Example 34, (2S,4R)-1-((S)-2-(3-(4-(2-((S)-2-(((4-(3,8-diazabicyclo[3.2.1]octan-3-yl)-7-(8-ethyl-3-hydroxynaphthalen-1-yl)-8-fluoropyrido[4,3-d]pyrimidin-2-yl)oxy)methyl)pyrrolidin-1-yl)ethyl)piperidin-1-yl)propanamido)-3,3-dimethylbutanoyl)-4-hydroxy-N-(4-(4-methylthiazol-5-yl)benzyl)pyrrolidine-2-carboxamide] showed a concentration for half-maximal inhibition (IC50) in assay [1] (class symbols) of 100 to 500 nM. Also, on KRAS-G12D, the DC50 lay in the range of 1000 to 10000 nM and the Dmax is < 30%.

What is called IC50 is the concentration that inhibits the measured activity by half. For orientation: DC50 means the concentration at which degradation of the target reaches its halfway point. What is called Dmax is the greatest extent of degradation seen. High values mean deep degradation, low ones shallow degradation.
